Reference: patent publication US20230414629A1, “MATERIALS AND METHODS OF TREATING CANCER” (MONOPTEROS THERAPEUTICS, INC., priority 2020, published 2023)
“Also recorded” adds a separate entry of the source. One block for each compound: values may come before it.

Key:
pKa = format: physicochemical
[1] = in vivo; cited from earlier work
[2] = Serum IgE and IgG in dogs dosed daily for 28 days; format: in vivo; details: 10-30 mg/kg daily for 28 days
Experimental: Whole venous blood samples of approximately 1 mL were collected from a peripheral vein of all animals on day 0 and on day 28 of the treatment period for determination of IgG and IgE concentrations. Test samples were diluted and incubated in the microtiter wells for 45 minutes alongside dog IgG or IgE standards. The microtiter wells were subsequently washed and HRP conjugate is added and incubated for 45 minutes. IgG or IgE molecules are thus sandwiched between the immobilization and detection antibodies. The wells were then washed to remove unbound HRP-labeled antibodies and TMB reagent was added and incubated for 20 minutes at room temperature. […] Color development is stopped by the addition of Stop Solution, changing the color to yellow, and optical density is measured spectrophotometrically at 450 nm. The concentration of IgG or IgE is proportional to the optical density of the test sample and is derived from a standard curve.

[3] = tested on: circulating regulatory T cells (Tregs); assay: Circulating Tregs in rats under continuous oral dosing (flow cytometry); format: in vivo; details: 15 and 30 mg/kg oral, days 0 through 14
Text: Animals: Harlan Sprague Dawley rats (Hsd:SD) rats were procured through Envigo (Indianapolis, IN). Rats were individually housed in an Optirat carousel with a filtered air supply (Animal Care Systems, Inc. [Centennial, CO]). Rats were fed Teklad rodent diet (Cat. #2020X) and bedded with Teklad ⅛th inch corncob bedding.
Blood sampling: After a 72-hour acclimation period, Rats were randomized into (3) groups of 5 rats each (Day −1). Blood samples were taken on days: −1, 3, 5, 7, 10, and 14. Blood sampling was conducted by inserting a 22 g PinPort injector (Cat. #PNP3M) on the pinport and drawing 200 μL of catheter Loc solution using a 1 mL syringe. The syringe was discarded and a new 1 mL syringe was used to draw approximately 300 μL of whole blood. Whole blood was expelled into 1.7 mL K2EDTA coated tubes and inverted 3× and put at 4 C until processing for flow cytometry. A syringe with Catheter Loc solution (Heparin/Glycerol Loc solution, Cat. #HGS-5 [Braintree Scientific]) was placed on a new PinPort injector and 200 μL of catheter loc solution was added. […]
Flow cytometry: Following red blood cell lysis (BD Pharm Lyse, Cat. #555899, Lot #9311388), rat blood samples were stained with near-IR fixable viability dye (1:3000 dilution, Invitrogen, Cat. #L34960 H, Lot #2159963) for 30 minutes at room temperature. […] Data was analyzed with FlowJo (BD, v10.6.2).

[4] = Plasma pharmacokinetics in C57/BL6 mice; format: in vivo
Experimental: (§1) A high volume of distribution (Vss 22.6 l/kg) was observed. […] The tumor concentrations in this experiment were above 3 μM for a 24-hour period, which is a required dose for an anti-tumor effect in patient-derived tumor spheroids as shown in FIG. 9. […] MPT-0118 is quickly distributed from the plasma to the tissue compartment, which reduces the risk for depletion of circulating Tregs. The high volume of distribution and accumulation of MPT-0118 in tumor tissue broadens the therapeutic window for cancer therapy.

D4M.3A tumor [5] = assay: Tumor growth in D4M.3A tumor-bearing C57/BL6 mice, oral dosing; format: in vivo; details: 64 mg/kg orally once per day for 20 days
Text: A high volume of distribution (Vss 22.6 l/kg) was observed. […] MPT-0118 is quickly distributed from the plasma to the tissue compartment, which reduces the risk for depletion of circulating Tregs. The high volume of distribution and accumulation of MPT-0118 in tumor tissue broadens the therapeutic window for cancer therapy.

[6] = Tumor pharmacokinetics in D4M.3A tumor-bearing C57/BL6 mice; format: in vivo; details: 64 mg/kg PO once per day, after 20 days of dosing, for a 24-hour period
Experimental: as §1

D4M.3A tumor [7] = assay: D4M.3A syngeneic tumors in C57BL/6J mice, I.P. monotherapy and combination with anti-PD-1; format: in vivo
Experimental: One million cells of D4M.3A tumor were injected subcutaneously into the right hind flank of C57BL/6J mice.
Anti-PD-1 Antibody dosing was 10 μL/g animal weight for 3 doses on first, third and fifth treatment day.
Measurement of tumor volume (L×W2)/2 was done by caliper. Longest tumor diameter becomes length. Width is perpendicular to length. Volume=(width2×length)/2.

[8] = tested on: patient-derived tumor spheroids; assay: Anti-tumor effect in patient-derived tumor spheroids; format: cell-based

- pKa (pKa): < 5
SMILES: CO[C@@H](C)c1c(NC(=O)Nc2cnc(-n3nccn3)c(Cl)c2)cnc2cc(Cl)nn12 [Example-10]

SMILES: CO[C@@H](C)c1c(NC(=O)Nc2ccnc(C(F)(F)F)c2)cnc2cc(Cl)nn12 [MLT-943]
- serum IgE [1]: increased

- pKa (pKa): 6.5
SMILES: CO[C@@H](C)c1c(NC(=O)Nc2cnc(-n3nccn3)c(C(F)(F)F)c2)cnc(N)c1Br [Compound-139]

- pKa (pKa): 9.2
- Vd ([4]; C57/BL6, mouse, single dose 16 mg/kg IV, plasma over 8 hours, read-out: volume of distribution (Vss)): 22.6 L/kg
- bioavailability ([4]; mouse, in vivo, po): 25 to 35%
- tumor concentrations [6]: above 3 μM
SMILES: CN1CCC[C@H](CN2c3ccccc3Sc3ccccc32)C1 [(S)-mepazine]
- serum levels of IgE [2]: not negatively impact; also recorded: did not increase; also recorded: did not decrease
- serum levels of IgG [2]: not negatively impact; also recorded: did not increase; also recorded: did not decrease
- average percent of circulating regulatory T cells (Tregs) [3]: no effect; also recorded: did not deplete
- tumor growth inhibition (D4M.3A tumor [5]): significant tumor growth inhibition
- tumor volume (D4M.3A tumor [7]; combination therapy: 32 mg/kg I.P. once per day with anti-PD-1 antibody): significant reduction in tumor volume; also recorded: reduced tumor volume
- tumor volume (D4M.3A tumor [7]; monotherapy, 32 mg/kg I.P. once per day, from day 9): reduced tumor volume
- required dose for an anti-tumor effect in patient-derived tumor spheroids [8]: 3 µM
